In patent US20190092814A1, “Peptide” (priority 2017, published 2019):
Where no end group is shown, it is not given here.

Experiments:
HS-rats = format: in vivo
Experimental: This study was carried out on 46 male Wistar rats (Charles River Ltd, Margate, UK) weighing 230-350 g receiving a standard diet and water ad libitum. Hemorrhagic shock and quantification of organ injury and dysfunction were performed as described previously in Sordi R et al (2017) Ann Surg, 265(2):408-417. Rats were anesthetized by sodium thiopentone (120 mg/kg i.p. for induction, followed by 10 mg/kg i.v. for maintenance). Cannulation of the trachea, femoral artery (for measuring blood pressure), and carotid arteries (for blood withdrawal), jugular vein (for drug administration), and bladder (for collecting urine) were performed. Blood (up to 1 mL/min) was withdrawn via the cannula inserted in the carotid artery in order to achieve a fall in mean arterial pressure (MAP) to 27 to 32 mmHg. Thereafter, MAP was maintained at this level for a period of 90 min either by further withdrawal of blood during the compensation phase or administration shed blood during the decompensation phase. At 90 min after initiation of hemorrhage (or when 25% of the shed blood had to be re-injected to sustain MAP at 27 to 32 mmHg), animals were resuscitated with the remaining shed blood (mixed with 100 IU/mL heparinized saline) (over a period of 5 min) plus a volume of Ringer's lactate identical to the volume of blood spent during decompensation. During the last 3 h of resuscitation, urine was obtained for the estimation of creatinine clearance. Then, blood samples were collected via the carotid artery for measurement of lactate (Accutrend Plus Meter, Roche Diagnostics, West Sussex, UK) and organ injury/dysfunction parameters. Under deep anesthesia, the heart was removed to terminate the experiment. Blood samples were centrifuged to separate serum, which was used for the determination of urea, creatinine, aspartate aminotransferase (AST), alanine aminotransferase (ALT), lipase, amylase and creatine kinase (CK) by an external contract research facility (IDEXX Laboratories Ltd, West Yorkshire, UK) in a blinded fashion. In addition, lung, kidney and liver samples were taken and stored at −80° C. for further analysis. Sham-operated rats were used as control and underwent identical surgical procedures, but without hemorrhage or resuscitation. Blood pressures during the experiment were measured by Powerlab®, and recorded and analyzed by Labchart® (AD instruments Ltd, Dunedin, New Zealand).
The following groups were studied: Sham+vehicle (n=11), sham+Pep19-4LF (n=6), HS+vehicle (n=12), HS+Pep19-4LF-LD (n=8), HS+Pep19-4LF-HD (n=8), HS+Pep19-2.5-HD (n=8). Rats were administered vehicle (saline 1.5 ml/kg/h) or Pep19-4LF (low dose (LD)=66 μg/kg×h; high dose (HD)=333 μg/kg×h) or Pep19-2.5 (high dose (HD)=333 μg/kg×h) continuously for 4 h after resuscitation using infusion pump for rodents (PHD2000, 70-2000; Harvard apparatus Massachusetts, U.S). 11 rats were excluded from data analysis due to surgical/technical issues (n=5) prior to onset of HS and death during resuscitation (n=6). The doses of Pep19-4LF and Pep19-2.5 used in this study were based on efficacy seen in previous in vitro and in vivo studies (Schuerholz T et al (2013) Crit Care, 17(1):R3; Tejada G Md et al (2015) Sci Rep, 5:14292; Martin L et al (2015) PLoS One, 10(5):e0127584; Martin L et al (2015) PLoS One, 10(11):e0143583).

[1] = Tejada G Md et al (2015); cited from earlier work
human red blood cells = assay: Hemolysis assay; format: cell-based; conditions: concentrations of up to 100 μg/ml, 37° C., 30 min
Experimental: Red blood cells (RBC) were obtained from citrated human blood by centrifugation (1,500×g; 10 min), washed three times with isotonic 20 mM phosphate-NaCl buffer (pH 7.4), and suspended in the same buffer at a concentration equivalent to 5% of the normal hematocrit. Forty-microliter aliquots of this RBC suspension were added to 0.96 ml of Pep19-4LF dilutions prepared in the same isotonic phosphate solution, incubated at 37° C. for 30 min, and centrifuged (1,500×g, 10 min). The supernatants were analyzed spectrophotometrically (with absorbance at 543 nm) for hemoglobin, and results were expressed as the percentage released with respect to sonicated controls (100% release) or controls processed without peptide (0% release).

[2] = therapeutic doses; cited from earlier work
[3] = HS-rats, high dose 333 μg/kg×h i.v., 4 h after HS, vs vehicle

GCKKYRRFRWKFKGKFWFWG (20-amino acid peptide, Pep19-2.5) [20-mer linear synthetic antimicrobial peptide based on Limulus anti-LPS factor]
liver injury caused by HS (HS-rats; HS-rats): significantly attenuated | pancreatic injury caused by HS (HS-rats; HS-rats): significantly attenuated | renal dysfunction caused by HS (HS-rats; HS-rats): significantly attenuated | decline in MAP during the resuscitation period (HS-rats; HS-rats, high dose 333 μg/kg×h i.v. continuously for 4 h after resuscitation, vs HS+vehicle): significantly attenuated | organ injury and dysfunction caused by HS (HS-rats; [3]): significantly attenuated | rise in lactate caused by HS (HS-rats; [3]): significantly attenuated | effects of LPS and lipoproteins [1]: neutralize

GKKYRRFRWKFKGKLFLFG-NH2 [Pep19-4LF, GKKYRRFRWKFKGKLFLFG]
hemolysis (hemoglobin release) (human red blood cells): no considerable degree of hemolysis | MAP in sham-operated rats (HS-rats; sham-operated rats, high dose 333 μg/kg×h): had no effect

LL-37: cathelicidin-derived human AMP (host-defence/antimicrobial peptide) [reference compound]
toxicity limiting therapeutic use in man [2]: systemic toxicity | effects of LPS and lipoproteins [1]: neutralize
